In a melting point compilation (Tetko et al.; mined from patent text by program, amines drawn as free bases though some values may be those of a salt):

melting point [°C]	Structure (SMILES)
95 to 99	Cc1cc(Cc2cnc(NCCCN(Cc3ccccc3)c3ccccn3)[nH]c2=O)cnc1C
170 to 172	CC(CN(C)S(C)(=O)=O)n1nnc2cc3c(=O)n(C4CC4)nnc3cc2c1=O (configuration not stated)
190 to 192	COc1ccc(P2(=O)c3ccccc3CN2c2ccccc2)cc1 (configuration not stated)
189 to 191	CCc1cc2c(s1)S(=O)(=O)Cc1cc(=O)n(-c3ccc(Cl)cc3)nc1-2
138 to 140	COc1ccc2nc(CSc3cc(C)ccn3)[nH]c2c1
56	COc1cccc2c(N3CCN(C[C@H]4COc5ccc6nc(C)ccc6c5O4)CC3)coc12
214 to 215	CC(C)(C)c1cc(CCc2ccccc2NC(=O)NCc2ccncc2)cc(C(C)(C)C)c1O
139 to 142	CN=C(NOC)c1nn(-c2c(Cl)cc(C(F)(F)F)cc2Cl)c(N)c1S(C)=O (configuration not stated)
206 to 208	COc1cccc(CNC(=O)c2nc3ccc(C#N)cc3c(=O)[nH]2)c1
170 to 181	C=CCONc1nc(NC=O)nc(Cl)c1NC=O
149 to 150	CCOC(=O)C(NC(C)=O)c1csc(NC(C)=O)n1 (configuration not stated)
96	CN1C(=O)N(Cc2cc(C(F)(F)F)cc(C(F)(F)F)c2)CC1(CCO)c1ccc(Cl)c(Cl)c1 (configuration not stated)
185 to 190	Cc1c(C)c(C)c(C2C(=O)Oc3c2cc(C(C)(C)C)cc3C(C)(C)C)c(C)c1C (configuration not stated)
157 to 159	CNC(=O)c1cnn(-c2ccccc2)c1Br
152 to 155	COc1ccc(COC(=O)NC(CO)Cc2ccc(O)cc2)cc1OC (configuration not stated)
141 to 143	Clc1ccc2c(c1)N=C(N1CCCN(C3CC3)CC1)c1ccccc1N2
50	CCCCCCNC(=O)Oc1ccc2c(c1)CCCN2C
122	CCOC(=O)/C=C(C)/C=C/C=C(\C)C1=Cc2cc(C)cc(C)c2OC1
168 to 170	CCC1COC(=NO)C(=O)N1C (configuration not stated)
242 to 245	O=[N+]([O-])c1ccc(Oc2ccc(Oc3ccc([N+](=O)[O-])c(O)c3)cc2)cc1O
165 to 167	CCCN(c1ccncc1)n1cc(C)c2cc(OCc3ccccc3)ccc21
181	NS(=O)(=O)c1ccc(N2CCN(CCC3C=Cc4ccccc43)CC2)cc1 (configuration not stated)
178	COc1cc2c(cc1[N+](=O)[O-])NC(=O)CN(CC1CC1)C2
183 to 185	Oc1ccc(-c2nc3cc(O)cc(Br)c3o2)c(C(F)(F)F)c1
145 to 147	CC(=O)Nc1cccc(CNC(=O)[C@H]2N(C(=O)[C@@H](O)[C@H](Cc3ccccc3)NC(=O)c3cccc(O)c3C)CSC2(C)C)c1

melting point [°C]	Structure (SMILES)
76 to 77	O=C1c2ccccc2C2(CCCC2)C(=O)N1CCO
167	Cc1cccc(NC(=O)NCC(=O)N(c2ccccc2)C(C(=O)OC(C)(C)C)c2ccc(Cl)cc2)c1 (racemic)
104 to 106	Cn1c(=O)oc2cc(CCBr)ccc21
124 to 127	CC(C)(C)n1ncc(NCCN2CCNC(c3cccc(C(F)(F)F)c3)C2)c(Cl)c1=O (configuration not stated)
158 to 160	NC(=O)c1ccc(NC2CCCN(Cc3ccccc3)C2)cc1 (configuration not stated)
170 to 172	N=C(NNC(=O)c1ccccc1)C(Cl)(Cl)Cl
214 to 216	O=C1CNc2cc(Br)c(F)cc2N1
220 to 222	CCCCn1c(COCC)nc2c(N)nc3ccc(-c4cccnc4)cc3c21
147 to 150	CCc1c(C(=O)N(O)O)cc(C(C)(C)C)c(O)c1C(C)(C)C
71 to 72	CN1CCCC1=C(C#N)c1ccc(Cl)cc1
200 to 206	Cc1ccc2c(c1)-c1nn(-c3ccc(Cl)cc3)c(=O)cc1CS2
110 to 112	Cc1oc(-c2ccccc2)nc1CCOc1ccc([N+](=O)[O-])cn1
150 to 151	Cc1ccc(S(N)(=O)=O)cc1-c1nc(C(F)(F)F)oc1-c1ccccc1
133 to 135	COc1ccc(C(=O)c2cccc([N+](=O)[O-])c2)cc1OC
119	N#CCc1ccccc1CCNC(=O)c1ccc([N+](=O)[O-])cc1
201 to 203	c1ccc(N2CCN(CCc3nc4ccccc4[nH]3)CC2)cc1
130 to 131	CCOC(=O)C[C@H]1O[C@H](c2ccc(OCc3ccccc3)cc2OC)c2cc(Cl)ccc2N(CC(C)(C)C)C1=O (relative stereo)
185 to 195	CCCCCCCCCCCCCCCCCCOc1cc(N)cc(N(CC(=O)O)CC(=O)O)c1
189	CC(=O)OCCn1c(=O)c(C#N)c(N2CCN(C(=O)c3cccs3)CC2)c2cccnc21
224 to 225	COc1cc(OC)c2cc(S(=O)(=O)Cc3ccc(OC)c([N+](=O)[O-])c3)c(=O)oc2c1
95 to 105	COc1cccc(NC(=O)NC2CC(c3ccccc3)CC(Cc3ccccc3)N(CC(=O)OC(C)(C)C)C2=O)c1 (configuration not stated)
257 to 258	CCOC(=O)c1cn2c3c(c(F)c(F)cc3c1=O)OCC2C (configuration not stated)
15	C1COCCOCCOCCNCCOCCOCCOCCN1
116 to 118	CC(=O)O[C@H]1C[C@@H]2CN(C(=O)c3ccc(NC(=O)c4ccccc4-c4ccccc4)cc3)c3ccccc3CN2C1
190 to 191	O=c1c(-c2ccc(Cl)cc2)c[nH]n1-c1ncccn1

melting point [°C]	Structure (SMILES)
73 to 75	COc1ccc2c(ccn2S(=O)(=O)c2ccccc2)c1
204	COc1cc2c(cc1OC)CN(c1nc(N)c3cc(OC)c(OC)c(OC)c3n1)CC2
103 to 105	CCN(CC)c1ccc(C(C)=O)cc1S(N)(=O)=O
133 to 135	COCOCC#Cc1nc(-c2ccc(=O)n(C(C)C)n2)c(-c2ccccc2)nc1N
195 to 197	Cn1cc(Br)cc(Nc2cc3n(n2)CCOC3)c1=O
59 to 59.5	OCC[C@H]1[C@@H]2O[C@@H]2C(F)(F)[C@@H]1O
198 to 201	CN1CCC(CNc2ncc3ncnc(Nc4ccc(F)c(Cl)c4)c3n2)CC1
68.5 to 69.5	COC(=O)CC1CCNC1 (configuration not stated)
118 to 120	CN1CCN(C2Cc3cc(Cl)ccc3Sc3ccc(F)cc32)CC1 (configuration not stated)
249 to 250	CO/C(=C\C=C\c1cc2cc(Cl)c(Cl)cc2[nH]1)C(=O)O
152 to 155	CCC(O)(CC)[C@H](C[C@H](O)[C@H](CC1CCCCC1)NC(=O)OC(C)(C)C)C(=O)NC
145 to 147	CC(=O)Oc1ccc(C2COc3cc(OC(C)=O)c(OC(C)=O)cc3C2)cc1 (configuration not stated)
263 to 264	O=C(C=Cc1ccccc1)NNC(=O)c1ccc(O)cc1
264	CCCc1nc2ccnn2c(O)c1Cc1ccc(-c2ccccc2C(N)=O)cc1
136	O=C(OCc1ccccc1)c1cc2ccccc2[nH]1
234 to 236	CCc1coc2c(-c3ccc(F)cc3)c(-c3ccc(S(N)(=O)=O)cc3)nn12
225 to 227	CC#Cc1cn(C2OC(CO)C(O)C2O)c(=O)[nH]c1=O (configuration not stated)
121 to 123	N#Cc1cc(Cl)c(N)c(I)c1
100 to 101	COCc1cccc(C(=O)c2nc(OC)cc(OC)n2)c1N
300	COc1ccc(Cn2c(C)cc3c(=O)[nH][nH]c(=O)c32)cc1
115 to 117	COc1ccc(CNc2nnc(N(C)CCCO)c3ccc(Cl)cc23)cc1Cl
135 to 145	COC(=O)C1=C(C)NC(CC(=O)N2CCN(C3CC4CCC(C3)N4C(=O)OC(C)Cl)CC2)=C(C(=O)OC)C1c1c(Cl)cccc1Cl (configuration not stated)
150 to 154	CN(C)Nc1c([N+](=O)[O-])cc(C(F)(F)F)c(N)c1[N+](=O)[O-]
71	CC(C)=CC(=O)On1cc(Cl)cn1
> 320	O=C(Nc1cc2[nH]c(=O)c(=O)[nH]c2cc1[N+](=O)[O-])C(F)(F)F

melting point [°C]	Structure (SMILES)
44 to 46	CCOc1cc(I)cc(OCC)c1OCC
98	C#CCn1c(C(F)(F)F)c(C(O)C#C)c2ccccc21 (racemic)
118 to 119	O=C(O)CCc1cnoc1-c1ccc(F)c(Cl)c1
64.5 to 65.5	COc1nc(-c2cc(C)c(OCCCc3cc(C)no3)c(C)c2)no1
156 to 158	CC1(C)NC(=O)c2ccc(OCCBr)cc2O1
243 to 245	COC(=O)c1cc(NC(C)=O)c2cc(Cc3ccc(F)cc3)cnc2c1O
104 to 105	CSCCC(NC(=O)c1ccc(Cl)cc1)NC(=NC#N)Nc1cccnc1 (configuration not stated)
127 to 130	Cc1ncc(CSC(=O)c2ccccc2)c(C=O)c1O
184 to 186	CCOC(=O)C1=C(C)NC(c2c(F)cc(F)cc2F)=NC1c1ccc(F)cc1Cl (configuration not stated)
65	CC(C)(C)SC1CC(=O)N1CC(=O)CCc1ccccc1 (configuration not stated)
108	CC12CCC(C(=Cc3ccc(CI)cc3)C1=O)C2(C)C (configuration not stated)
140 to 143	O=C1OC2CC3CC(C2)OC1O3
284	CCCC1=C(C#N)C(c2ccccc2Cl)c2c(n[nH]c2-c2ccc(OC)cc2)N1 (configuration not stated)
95 to 96.5	NCC1c2ccccc2C=Cc2ccccc21
> 360	CN(C)CCn1c(=O)c2c3oc4ccccc4oc3c3[nH]c4cc(O)ccc4c3c2c1=O
186	O=C(c1ccncc1)c1cccc(NC(=O)c2ccn3c2CSC3c2cccnc2)c1 (configuration not stated)
218 to 220	CC(=O)Oc1cccc2c1C(=O)c1c(OC(C)=O)cc(C#N)cc1C2=O
225 to 226	O=C1CC2(CCOc3ccc(Cl)cc32)C(=O)N1 (configuration not stated)
165 to 167	NS(=O)(=O)c1cc2cc(C=O)sc2o1
238 to 241	CCOc1ccc2c(c1O)CCN(C(C)=O)[C@@H]2c1cc(Cl)cc(Cl)c1
227 to 230	CCn1cc(Br)nc(N)c1=O
114 to 116	CC(c1ccccc1)N1CC(CF)(C(=O)NCc2ccccc2)CC1=O (configuration not stated)

Structure (SMILES)	melting point [°C]
CN1C(=O)N(C)C(=O)C(C(N)=O)(c2ccc(Cl)cc2)C1=O	225 to 227
C1=C(c2ccc3[nH]ccc3c2)CCN(Cc2c[nH]c3ncccc23)C1	187 to 189
C[C@H]1N=C(c2ccccc2F)c2cc(N)ccc2N(C)C1=O	224 to 226
CC(=O)OC1=CC2=CCC3C(CCC4(C)C(OC(C)=O)CCC34)C2CC1 (configuration not stated)	165 to 171
CCOC(=O)c1ncn2c1CN(C)C(=O)c1ccccc1-2	163 to 165
